In ChEMBL document CHEMBL3751729, “Benzamide derivatives and their constrained analogs as histamine H3 receptor antagonists” (Eur J Med Chem, 2016):
pIC50, pKi: −log10 of the molar value. Values belong to the compound of their own block, whether it stands above or below them.

Assays:
[1] = biological target: T1, Histamine H3 receptor (Homo sapiens, UniProt Q9Y5N1); assay: Displacement of [3H]R-alpha-methyl histamine from recombinant human H3 receptor
[2] = biological target: T1, Histamine H3 receptor; assay: Binding affinity to recombinant human H3 receptor
[3] = biological target: T1, Histamine H3 receptor; assay: Antagonist activity at recombinant human H3 receptor expressed on CHO-K1 cells assessed as cAMP level by luciferase gene reporter assay; format: functional, cell-based
[4] = Cmax in fasted Wistar rat at 5 mg/kg, po by LC-MS/MS analysis; format: ADME, organism-based; design: dose 5 mg/kg, route oral; settings: in vivo
[5] = biological target: T2, hERG (KCNH2) (Homo sapiens, UniProt Q12809); assay: Inhibition of human ERG at 10 uM by scintillation counting method
T2 sequence (Q12809 whole entry): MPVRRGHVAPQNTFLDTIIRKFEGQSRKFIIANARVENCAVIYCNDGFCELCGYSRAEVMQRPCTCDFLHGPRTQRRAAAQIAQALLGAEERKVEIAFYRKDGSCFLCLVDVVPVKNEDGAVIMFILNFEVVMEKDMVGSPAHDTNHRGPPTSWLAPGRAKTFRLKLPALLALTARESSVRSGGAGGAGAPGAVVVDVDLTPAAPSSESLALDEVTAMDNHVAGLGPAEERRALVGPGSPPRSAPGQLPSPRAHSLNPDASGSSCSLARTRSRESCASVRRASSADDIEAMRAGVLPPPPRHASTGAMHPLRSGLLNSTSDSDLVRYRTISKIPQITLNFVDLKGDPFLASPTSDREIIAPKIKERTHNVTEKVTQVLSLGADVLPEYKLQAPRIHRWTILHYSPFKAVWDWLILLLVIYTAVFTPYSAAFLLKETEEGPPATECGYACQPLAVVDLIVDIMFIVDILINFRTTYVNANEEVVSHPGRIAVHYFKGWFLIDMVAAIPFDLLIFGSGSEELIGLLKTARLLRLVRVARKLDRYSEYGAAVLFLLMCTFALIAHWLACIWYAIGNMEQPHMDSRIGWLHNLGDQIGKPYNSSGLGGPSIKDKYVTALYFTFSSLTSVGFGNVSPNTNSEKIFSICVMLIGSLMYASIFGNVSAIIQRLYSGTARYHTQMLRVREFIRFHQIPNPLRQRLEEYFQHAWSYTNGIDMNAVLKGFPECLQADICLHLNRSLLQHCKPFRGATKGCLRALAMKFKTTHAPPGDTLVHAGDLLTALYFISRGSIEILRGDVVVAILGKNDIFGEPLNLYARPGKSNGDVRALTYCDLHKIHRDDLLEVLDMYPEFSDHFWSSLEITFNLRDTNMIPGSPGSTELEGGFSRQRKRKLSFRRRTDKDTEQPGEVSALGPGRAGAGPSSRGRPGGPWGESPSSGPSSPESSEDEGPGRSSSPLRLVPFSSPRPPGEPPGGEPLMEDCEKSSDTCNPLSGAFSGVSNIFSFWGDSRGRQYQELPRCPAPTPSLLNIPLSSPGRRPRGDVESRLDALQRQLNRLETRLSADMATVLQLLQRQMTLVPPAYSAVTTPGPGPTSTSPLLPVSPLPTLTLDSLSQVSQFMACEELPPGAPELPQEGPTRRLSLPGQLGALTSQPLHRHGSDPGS

[6] = Metabolic stability in human liver microsomes assessed as compound metabolized after 30 mins by LC-MS/MS analysis; format: ADME; settings: read-out: Drug metabolism
[7] = Metabolic stability in rat liver microsomes assessed as compound metabolized after 30 mins by LC-MS/MS analysis; format: ADME; settings: read-out: Drug metabolism
[8] = test system: Rattus norvegicus; assay: AUCt in fasted Wistar rat at 5 mg/kg, po by LC-MS/MS analysis; format: ADME, organism-based; settings: in vivo
[9] = test system: Rattus norvegicus; assay: Oral bioavailability in fasted Wistar rat at 5 mg/kg by LC-MS/MS analysis; format: ADME, organism-based; settings: in vivo
[10] = test system: Rattus norvegicus; assay: Half life in fasted Wistar rat at 5 mg/kg, iv by LC-MS/MS analysis; format: ADME, organism-based; settings: in vivo
[11] = biological target: T2, hERG (KCNH2); assay: Inhibition of human ERG at 1 uM by scintillation counting method
[12] = biological target: Cytochrome P450 3A4 (Homo sapiens, UniProt P08684); assay: Inhibition of human CYP3A4 after 2 mins by LC-MS/MS analysis; format: ADME
Sequence of Cytochrome P450 3A4 (P08684 whole entry): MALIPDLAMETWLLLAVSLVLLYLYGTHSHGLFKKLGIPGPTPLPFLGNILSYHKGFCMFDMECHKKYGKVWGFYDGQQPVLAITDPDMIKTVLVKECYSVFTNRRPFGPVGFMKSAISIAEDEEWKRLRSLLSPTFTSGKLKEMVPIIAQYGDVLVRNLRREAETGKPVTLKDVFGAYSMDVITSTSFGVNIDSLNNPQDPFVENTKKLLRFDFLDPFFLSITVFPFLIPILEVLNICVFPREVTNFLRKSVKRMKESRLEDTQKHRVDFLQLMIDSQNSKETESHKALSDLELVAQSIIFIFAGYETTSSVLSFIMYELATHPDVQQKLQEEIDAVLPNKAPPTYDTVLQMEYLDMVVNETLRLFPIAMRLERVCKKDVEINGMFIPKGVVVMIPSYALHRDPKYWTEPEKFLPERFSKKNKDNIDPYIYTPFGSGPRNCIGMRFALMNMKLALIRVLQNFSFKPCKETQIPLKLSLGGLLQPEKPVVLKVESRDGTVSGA

[13] = biological target: Cytochrome P450 2D6 (Homo sapiens, UniProt P10635); assay: Inhibition of human CYP2D6 after 12 mins by LC-MS/MS analysis; format: ADME
Sequence of Cytochrome P450 2D6 (P10635 whole entry): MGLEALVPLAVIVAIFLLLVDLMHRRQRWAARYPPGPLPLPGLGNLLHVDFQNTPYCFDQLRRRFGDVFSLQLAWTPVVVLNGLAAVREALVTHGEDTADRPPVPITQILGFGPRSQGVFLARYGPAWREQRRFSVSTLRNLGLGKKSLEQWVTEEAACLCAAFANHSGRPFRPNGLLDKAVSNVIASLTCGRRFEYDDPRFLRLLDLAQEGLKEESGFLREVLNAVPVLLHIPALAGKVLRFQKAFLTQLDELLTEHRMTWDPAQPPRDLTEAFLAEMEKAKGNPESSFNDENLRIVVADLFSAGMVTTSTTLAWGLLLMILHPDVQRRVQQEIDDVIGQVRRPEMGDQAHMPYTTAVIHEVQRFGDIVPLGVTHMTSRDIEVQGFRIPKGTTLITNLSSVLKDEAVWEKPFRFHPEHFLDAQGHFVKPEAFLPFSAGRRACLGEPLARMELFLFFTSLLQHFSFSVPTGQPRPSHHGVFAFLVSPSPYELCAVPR

[14] = Cmax in fasted Wistar rat at 3 mg/kg, po by LC-MS/MS analysis; format: ADME, organism-based; design: dose 3 mg/kg, route oral; settings: in vivo
[15] = test system: Rattus norvegicus; assay: AUCt in fasted Wistar rat at 3 mg/kg, po by LC-MS/MS analysis; format: ADME, organism-based; settings: in vivo
[16] = test system: Rattus norvegicus; assay: Oral bioavailability in fasted Wistar rat at 3 mg/kg by LC-MS/MS analysis; format: ADME, organism-based; settings: in vivo
[17] = test system: Rattus norvegicus; assay: Apparent volume of distribution in fasted Wistar rat at 3 mg/kg, iv by LC-MS/MS analysis; format: ADME, organism-based; settings: in vivo
[18] = Drug uptake in Wistar rat brain at 3 mg/kg, po after 1 hr by LC-MS/MS analysis; format: ADME, organism-based; settings: read-out: Drug uptake
[19] = Drug uptake in Wistar rat brain at 10 mg/kg, po after 1 hr by LC-MS/MS analysis; format: ADME, organism-based; settings: read-out: Drug uptake
[20] = Drug uptake in Wistar rat brain at 30 mg/kg, po after 1 hr by LC-MS/MS analysis; format: ADME, organism-based; settings: read-out: Drug uptake
[21] = Plasma concentration in Wistar rat at 3 mg/kg, po after 1 hr by LC-MS/MS analysis; format: ADME, organism-based
[22] = Plasma concentration in Wistar rat at 10 mg/kg, po after 1 hr by LC-MS/MS analysis; format: ADME, organism-based
[23] = Plasma concentration in Wistar rat at 30 mg/kg, po after 1 hr by LC-MS/MS analysis; format: ADME, organism-based
[24] = Ratio of drug level in brain to blood in Wistar rat at 10 mg/kg, po by LC-MS/MS analysis
[25] = test system: Rattus norvegicus; assay: In vivo receptor occupancy at histamine H3 receptor in po dosed Wistar rat by LC-MS/MS analysis; format: functional

T1 sequence (Q9Y5N1 whole entry): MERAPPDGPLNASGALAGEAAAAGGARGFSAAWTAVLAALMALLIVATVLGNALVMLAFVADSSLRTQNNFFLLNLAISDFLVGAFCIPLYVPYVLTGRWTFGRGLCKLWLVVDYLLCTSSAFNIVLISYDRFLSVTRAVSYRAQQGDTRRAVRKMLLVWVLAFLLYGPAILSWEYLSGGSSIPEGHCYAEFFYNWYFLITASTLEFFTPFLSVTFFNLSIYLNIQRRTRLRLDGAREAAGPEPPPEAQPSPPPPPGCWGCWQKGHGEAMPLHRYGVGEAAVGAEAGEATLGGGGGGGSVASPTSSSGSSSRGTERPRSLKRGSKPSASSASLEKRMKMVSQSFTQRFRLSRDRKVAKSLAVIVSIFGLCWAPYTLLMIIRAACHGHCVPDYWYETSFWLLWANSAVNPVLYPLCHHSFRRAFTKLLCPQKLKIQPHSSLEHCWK

SMILES: CC(C)N1CCC(Oc2ccc(C(=O)NC3CCN(C4CCC4)C3)c(Cl)c2)CC1 (racemic)
pKi [1]: 7.74

SMILES: Cc1cc(C(=O)NC2CCN(C(C)C)C2)ccc1OC1CCN(C(C)C)CC1 (racemic)
pKi [1]: 5.87

SMILES: CC(C)N1CCC(Oc2ccc3c(c2)CCN(C2CCN(C(C)C)C2)C3=O)CC1 (stereo not drawn)
pKi [2]: 10.00 | pIC50 [3]: 7.84

SMILES: CC(C)CN1CCC(NC(=O)c2ccc(OC3CCN(C(C)C)CC3)cc2)C1 (stereo not drawn)
Cmax [4]: 18 ng/mL | pKi [2]: 8.92 | pIC50 [3]: 6.34 | inhibition at 10 µM [5]: 35% | metabolised at 0.5 h [6]: 18% | metabolised at 0.5 h [7]: 8% | AUCt [8]: 281 ng·h/mL | F [9]: 81% | t1/2 [10]: 17.51 h

SMILES: CC(C)N1CCC(Oc2ccc(C(=O)NC3CCN(C4CCC4)CC3)c(F)c2)CC1
pKi [1]: 7.98

SMILES: CC(C)N1CCC(Oc2ccc(C(=O)NC3CCN(C(C)C)C3)cc2)CC1 (stereo not drawn)
Cmax [4]: 122 ng/mL | pKi [2]: 9.05 | pIC50 [3]: 6.49 | inhibition at 1 µM [11]: 21% | pIC50 [12]: < 4.35 | pIC50 [13]: < 4.35 | metabolised at 0.5 h [6]: 12% | metabolised at 0.5 h [7]: 4% | AUCt [8]: 444 ng·h/mL | F [9]: 75% | t1/2 [10]: 11.67 h

SMILES: CC(C)N1CCC(NC(=O)c2ccc(OC3CCN(C(C)C)CC3)cc2F)CC1
pKi [1]: 7.94

SMILES: CC(C)N1CCC(NC(=O)c2ccc(OC3CCN(C4CCC4)CC3)cc2)C1 (stereo not drawn)
pIC50 [12]: < 4.52 | pIC50 [13]: < 4.52

SMILES: Cc1cc(OC2CCN(C(C)C)CC2)ccc1C(=O)NC1CCN(C2CCC2)C1 (racemic)
pKi [1]: 8.04

SMILES: O=C1CCCN1c1ccc(Oc2ccc3c(c2)CCN(C2CCC2)CC3)nc1 [GSK239512]
pKi [2]: 8.00

SMILES: CC(C)N1CCC(NC(=O)c2ccc(OC3CCN(C4CCC4)CC3)cc2)C1 (racemic)
pKi [1]: 7.57

SMILES: CC(C)N1CCC(NC(=O)c2ccc(OC3CCOCC3)cc2)C1 (racemic)
pKi [1]: 6.99

SMILES: Cc1cc(C(=O)NC2CCN(C3CCC3)C2)ccc1OC1CCN(C(C)C)CC1 (racemic)
pKi [1]: 6.42

SMILES: CC(C)N1CCC(NC(=O)c2ccc(OC3CCN(C4CCCC4)CC3)cc2)C1 (stereo not drawn)
pKi [2]: 9.00 | pIC50 [3]: 6.56

Now from value to compound, other results behind:

pKi [1]: 8.24
SMILES: CC(C)N1CCC(Oc2ccc(C(=O)NC3CCN(C4CCC4)C3)c(F)c2)CC1 (racemic)

pKi [1]: 9.00
SMILES: CC(C)CN1CCC(NC(=O)c2ccc(OC3CCN(C(C)C)CC3)cc2)C1 (racemic)

pKi [1]: 8.80
SMILES: CC(C)N1CCC(NC(=O)c2ccc(OC3CCN(C4CCC4)CC3)cc2)CC1

pKi [1]: 8.14
SMILES: CC(C)N1CCC(Oc2ccc(C(=O)NC3CCN(C4CCC4)C3)cc2F)CC1 (racemic)

pKi [1]: 8.07
SMILES: CC(C)N1CCC(NC(=O)c2ccc(OC3CCN(C4CCCC4)CC3)cc2)C1 (racemic)

pKi [1]: 8.15
SMILES: CC(C)N1CCC(NC(=O)c2ccc(OC3CCN(C4CCC4)CC3)cc2Cl)CC1

pKi [1]: 8.68
SMILES: CC(C)N1CCC(Oc2ccc3c(c2)CCN(C2CCN(C(C)C)C2)C3=O)CC1 (racemic)

pKi [1]: 8.17
SMILES: O=C(NC1CCN(C2CCC2)CC1)c1ccc(OC2CCN(C3CCC3)CC2)cc1Cl

pKi [1]: 8.74
SMILES: CC(C)N1CCC(Oc2ccc3c(c2)CCN(C2CCN(C4CCC4)CC2)C3=O)CC1

pKi [1]: 9.10 | Cmax [14]: 80 ng/mL | pKi [2]: 10.52 | pIC50 [3]: 8.32 | metabolised at 0.5 h [6]: 10% | metabolised at 0.5 h [7]: 6% | AUCt [15]: 1429 ng·h/mL | F [16]: 27% | Vz [17]: 13 L/kg | concentration at 1 h [18]: 28.5 ng/g | concentration at 1 h [19]: 175 ng/g | concentration at 1 h [20]: 765 ng/g | concentration at 1 h [21]: 3.7 ng/mL | concentration at 1 h [22]: 15.7 ng/mL | concentration at 1 h [23]: 76.3 ng/mL | Kp [24]: 0.54
SMILES: O=C1c2ccc(OC3CCN(C4CCC4)CC3)cc2CCN1C1CCN(C2CCC2)CC1
inhibition at 1 µM [11]: 23% | inhibition at 10 µM [5]: 26% | Activity [25]: Dose-dependent effect | ED50 [25]: 15.5 mg/kg

pKi [1]: 8.60
SMILES: CC(C)N1CCC(Oc2ccc(C(=O)NC3CCN(C4CCC4)C3)cc2)CC1 (racemic)

pKi [1]: 8.92
SMILES: CC(C)N1CCC(Oc2ccc3c(c2)CCN(C2CCN(C4CCC4)C2)C3=O)CC1 (racemic)

pKi [1]: 8.08
SMILES: CC(C)N1CCC(NC(=O)c2ccc(OC3CCN(C(C)C)CC3)cc2)CC1

pKi [1]: 8.24
SMILES: CC(C)N1CCC(Oc2ccc(C(=O)NC3CCN(C(C)C)C3)cc2)CC1 (racemic)
